Legend:
[1] = test system: Cyperus iria; test: Preemergence weed control under flooded paddy conditions, CYPIR (Rice Flatsedge); type: in vivo; settings: flooded paddy, rated three to four weeks after treatment; as to herbicidal effect rating, CYPIR: meaning of each grade not given here
[2] = test system: Echinochloa oryzoides (Ard.) Fritsch.; test: Preemergence weed control under flooded paddy conditions, ECHORC (Watergrass (Calif.)); type: in vivo; settings: flooded paddy, rated three to four weeks after treatment; as to herbicidal effect rating, ECHORC: meaning of each grade not given here
[3] = test system: Oryza sativa, (L.) Tebonnet; test: Rice tolerance to post-transplant applications under flooded paddy conditions (Example 187), ORYSAT (Rice, Tebonnet); settings: rated three to four weeks after treatment; as to herbicidal effect rating ORYSAT: meaning of each grade not given here
[4] = test system: Cyperus serotinus, Rottb.; test: Preemergence weed control under flooded paddy conditions, CYPSE (Flatsedge); type: in vivo; settings: rated three to four weeks after treatment; as to herbicidal effect rating, CYPSE: meaning of each grade not given here
[5] = test system: Monochoria vaginalis, Presl.; test: Preemergence weed control under flooded paddy conditions, MOOVA (Monochoria); type: in vivo; settings: flooded paddy, rated three to four weeks after treatment; as to herbicidal effect rating, MOOVA: meaning of each grade not given here
[6] = test system: Sagittaria pygmaea, L.; test: Preemergence weed control under flooded paddy conditions, SAGPY (Arrowhead (Pygmaea)); type: in vivo; settings: flooded paddy, rated three to four weeks after treatment; as to herbicidal effect rating, SAGPY: meaning of each grade not given here
[7] = 0.2500 kg/ha, preemergence weeds
[8] = Rate 0.0313 kg/ha, preemergence
[9] = Rate 0.0625 kg/ha, preemergence
[10] = Rate 0.1250 kg/ha, preemergence
[11] = Rate 0.2500 kg/ha, preemergence
[12] = Rate 0.0320 kg/ha, preemergence
[13] = Rate 0.0620 kg/ha, preemergence
[14] = Rate 0.5000 kg/ha, preemergence

Structure (SMILES): Cn1c(C(F)(F)F)cc(=O)n(-c2ccc3snc(COC(CF)CF)c3c2)c1=O [Example 207, 3-{3-{[2-Fluoro-1-(fluoromethyl)ethoxy]methyl}-1,2-benzisothiazol-5-yl}-1-methyl-6-(trifluoromethyl)-2,4(1H,3H)-pyrimidinedione]
- herbicidal effect rating, CYPIR [1, 7]: 8.5
- CYPIR herbicidal effect rating [1, 8]: 5.5
- CYPIR herbicidal effect rating [1, 9]: 6.5
- CYPIR herbicidal effect rating [1, 10]: 8.5
- herbicidal effect rating, ECHORC [2, 7]: 5.5
- ECHORC herbicidal effect rating [2, 8]: 1.0
- ECHORC herbicidal effect rating [2, 9]: 1.5
- ECHORC herbicidal effect rating [2, 10]: 2.0
- herbicidal effect rating, ORYSAT (rice tolerance) ([3]; 0.2500 kg/ha): 7.5
- ORYSAT herbicidal effect rating ([3]; Rate 0.0313 kg/ha): 5.0
- ORYSAT herbicidal effect rating ([3]; Rate 0.0625 kg/ha): 6.0
- ORYSAT herbicidal effect rating ([3]; Rate 0.1250 kg/ha): 7.0
- herbicidal effect rating, CYPSE [4, 7]: 6.0
- CYPSE herbicidal effect rating [4, 8]: 0.0
- CYPSE herbicidal effect rating [4, 9]: 0.0
- CYPSE herbicidal effect rating [4, 10]: 1.0
- herbicidal effect rating, MOOVA [5, 7]: 7.5
- MOOVA herbicidal effect rating [5, 8]: 4.0
- MOOVA herbicidal effect rating [5, 9]: 4.5
- MOOVA herbicidal effect rating [5, 10]: 5.5
- herbicidal effect rating, SAGPY [6, 7]: 1.0
- SAGPY herbicidal effect rating [6, 8]: 0.0
- SAGPY herbicidal effect rating [6, 9]: 0.0
- SAGPY herbicidal effect rating [6, 10]: 0.0

Structure (SMILES): CC(C)=CCOCc1nsc2ccc(-n3c(=O)cc(C(F)(F)F)n(C)c3=O)cc12 [Example 210, 1-Methyl-3-{3-[(3-methyl-2-butenyloxy)methyl]-1,2-benzisothiazol-5-yl}-6-(trifluoromethyl)-2,4(1H,3H)-pyrimidinedione]
- CYPIR herbicidal effect rating [1, 8]: 2.0
- CYPIR herbicidal effect rating [1, 9]: 7.0
- CYPIR herbicidal effect rating [1, 11]: 7.0
- ECHORC herbicidal effect rating [2, 8]: 9.0
- ECHORC herbicidal effect rating [2, 9]: 9.0
- ECHORC herbicidal effect rating [2, 10]: 9.0
- ECHORC herbicidal effect rating [2, 11]: 9.0
- ORYSAT herbicidal effect rating ([3]; Rate 0.0313 kg/ha): 3.0
- ORYSAT herbicidal effect rating ([3]; Rate 0.0625 kg/ha): 4.0
- ORYSAT herbicidal effect rating ([3]; Rate 0.1250 kg/ha): 6.0
- ORYSAT herbicidal effect rating ([3]; Rate 0.2500 kg/ha): 7.0
- CYPSE herbicidal effect rating [4, 8]: 0.0
- CYPSE herbicidal effect rating [4, 9]: 0.0
- CYPSE herbicidal effect rating [4, 10]: 0.0
- CYPSE herbicidal effect rating [4, 11]: 0.0
- MOOVA herbicidal effect rating [5, 8]: 9.0
- MOOVA herbicidal effect rating [5, 9]: 9.0
- MOOVA herbicidal effect rating [5, 10]: 9.0
- MOOVA herbicidal effect rating [5, 11]: 9.0
- SAGPY herbicidal effect rating [6, 8]: 0.0
- SAGPY herbicidal effect rating [6, 9]: 0.0
- SAGPY herbicidal effect rating [6, 10]: 0.0
- SAGPY herbicidal effect rating [6, 11]: 0.0

Structure (SMILES): Cn1c(C(F)(F)F)cc(=O)n(-c2ccc3snc(C#N)c3c2)c1=O [Example 373, 1,2-Benzisothiazole-3-carbonitrile, 5-[3,6-dihydro-3-methyl-2,6-dioxo-4-(trifluoromethyl)-1(2H)-pyrimidinyl]-]
- herbicidal effect rating, CYPIR [1, 12]: 6.5
- herbicidal effect rating, CYPIR [1, 13]: 9.0
- herbicidal effect rating, CYPIR [1, 10]: 9.0
- herbicidal effect rating, CYPIR [1, 11]: 9.0
- herbicidal effect rating, ECHORC [2, 12]: 6.5
- herbicidal effect rating, ECHORC [2, 13]: 9.0
- herbicidal effect rating, ECHORC [2, 10]: 9.0
- herbicidal effect rating, ECHORC [2, 11]: 9.0
- herbicidal effect rating ORYSAT ([3]; Rate 0.0320 kg/ha): 5.5
- herbicidal effect rating ORYSAT ([3]; Rate 0.0620 kg/ha): 6.5
- herbicidal effect rating ORYSAT ([3]; Rate 0.1250 kg/ha): 6.0
- herbicidal effect rating ORYSAT ([3]; Rate 0.2500 kg/ha): 8.0
- herbicidal effect rating, CYPSE [4, 12]: 2.0
- herbicidal effect rating, CYPSE [4, 13]: 5.0
- herbicidal effect rating, CYPSE [4, 10]: 7.5
- herbicidal effect rating, CYPSE [4, 11]: 8.0
- herbicidal effect rating, MOOVA [5, 12]: 9.0
- herbicidal effect rating, MOOVA [5, 13]: 9.0
- herbicidal effect rating, MOOVA [5, 10]: 9.0
- herbicidal effect rating, MOOVA [5, 11]: 9.0
- herbicidal effect rating, SAGPY [6, 12]: 5.5
- herbicidal effect rating, SAGPY [6, 13]: 8.5
- herbicidal effect rating, SAGPY [6, 10]: 9.0
- herbicidal effect rating, SAGPY [6, 11]: 9.0

Structure (SMILES): Cc1nsc2cc(F)c(-n3c(=O)cc(C(F)(F)F)n(C)c3=O)cc12 [Example 366, 2,4(1H,3H)-Pyrimidinedione, 3-(6-fluoro-3-methyl-1,2-benzisothiazol-5-yl)-1-methyl-6-(trifluoromethyl)-]
- herbicidal effect rating, CYPIR [1, 12]: 8.5
- herbicidal effect rating, CYPIR [1, 13]: 9.0
- herbicidal effect rating, CYPIR [1, 10]: 9.0
- herbicidal effect rating, CYPIR [1, 11]: 9.0
- herbicidal effect rating, CYPIR [1, 14]: 9.0
- herbicidal effect rating, ECHORC [2, 12]: 8.0
- herbicidal effect rating, ECHORC [2, 13]: 8.5
- herbicidal effect rating, ECHORC [2, 10]: 9.0
- herbicidal effect rating, ECHORC [2, 11]: 9.0
- herbicidal effect rating, ECHORC [2, 14]: 9.0
- herbicidal effect rating ORYSAT ([3]; Rate 0.0320 kg/ha): 7.5
- herbicidal effect rating ORYSAT ([3]; Rate 0.0620 kg/ha): 9.0
- herbicidal effect rating ORYSAT ([3]; Rate 0.1250 kg/ha): 9.0
- herbicidal effect rating ORYSAT ([3]; Rate 0.2500 kg/ha): 9.0
- herbicidal effect rating ORYSAT ([3]; Rate 0.5000 kg/ha): 9.0
- herbicidal effect rating, CYPSE [4, 12]: 8.0
- herbicidal effect rating, CYPSE [4, 13]: 8.0
- herbicidal effect rating, CYPSE [4, 10]: 9.0
- herbicidal effect rating, CYPSE [4, 11]: 9.0
- herbicidal effect rating, CYPSE [4, 14]: 9.0
- herbicidal effect rating, MOOVA [5, 12]: 9.0
- herbicidal effect rating, MOOVA [5, 13]: 9.0
- herbicidal effect rating, MOOVA [5, 10]: 9.0
- herbicidal effect rating, MOOVA [5, 11]: 9.0
- herbicidal effect rating, MOOVA [5, 14]: 9.0
- herbicidal effect rating, SAGPY [6, 12]: 7.0
- herbicidal effect rating, SAGPY [6, 13]: 8.0
- herbicidal effect rating, SAGPY [6, 10]: 9.0
- herbicidal effect rating, SAGPY [6, 11]: 9.0
- herbicidal effect rating, SAGPY [6, 14]: 9.0

— patent EP0908457B1, “3-(1,2-benzisothiazol- and isoxazol-5-Y1)-2,4(1H,3H)-pyrimidinedione or thione and 3-(1,2-benzisothiazol- and isoxazol-5-y1)-4(3H)-pyrimidinone or thione herbicidal agents” (BASF AKTIENGESELLSCHAFT, priority 1997, dated 1999)
